Earlier results, collected in US20070197599A1, “HYDROXYLAMINES AND DERIVATIVES AS ANTI-ANGIOGENIC AGENTS” (priority 2006, published 2007).

System: selenite induced cataract
Settings: mice; cited from earlier work

In the case of `CC1(C)CC(O)CC(C)(C)N1O` [TPH], the “prevention of selenite induced cataract” value is listed as “effective”.
